Key:
Lag1 = target: T1, Lag1 (Saccharomyces cerevisiae, UniProt P38703); assay: in vitro CerS assay, TLC fluorescence of NBD-ceramide; assay type: cell-free (lysate); settings: labelled compound; 50 μM C26-CoA, 5 μM human ACBP1, 20 μM defatted BSA, 2 mM MgCl2, pH 7.2, 37°C; Δlac1Δsur2 lysate; read-out: apparent Km
T1 construct: native full-length protein in cryo-milled lysate of Δlac1Δsur2 yeast; with Ceramide synthase subunit LIP1
T1 sequence (P38703 1-411): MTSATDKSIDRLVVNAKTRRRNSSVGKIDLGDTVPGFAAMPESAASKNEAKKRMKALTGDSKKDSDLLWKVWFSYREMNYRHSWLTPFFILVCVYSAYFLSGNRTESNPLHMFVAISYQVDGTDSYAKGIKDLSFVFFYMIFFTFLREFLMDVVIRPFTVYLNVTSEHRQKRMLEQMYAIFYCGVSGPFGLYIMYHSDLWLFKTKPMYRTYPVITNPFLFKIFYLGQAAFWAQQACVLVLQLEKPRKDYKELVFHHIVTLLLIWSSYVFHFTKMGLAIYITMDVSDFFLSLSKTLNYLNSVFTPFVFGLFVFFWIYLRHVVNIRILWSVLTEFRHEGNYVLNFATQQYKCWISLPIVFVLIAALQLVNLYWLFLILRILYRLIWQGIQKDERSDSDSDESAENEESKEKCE
T1 sequence (Q03579 1-150 partner): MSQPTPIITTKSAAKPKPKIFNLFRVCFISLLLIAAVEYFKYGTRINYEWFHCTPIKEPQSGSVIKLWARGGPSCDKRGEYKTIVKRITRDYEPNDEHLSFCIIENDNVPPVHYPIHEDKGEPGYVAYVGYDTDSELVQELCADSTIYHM
Text: in vitro CerS assay, TLC fluorescence of NBD-ceramide on Lag1 | Lag1 (Δlac1Δsur2) has a higher affinity towards PHS than Lac1 (Δlag1Δsur2) | We next determined the Km of Lag1 or Lac1 towards DHS and PHS

Lac1 = target: T2, Lac1 (Saccharomyces cerevisiae, UniProt P28496); assay: as above; assay type: cell-free; settings: labelled compound; 50 μM C26-CoA, 5 μM human ACBP1, 20 μM defatted BSA, 2 mM MgCl2, pH 7.2, 37°C; Δlag1Δsur2 lysate; read-out: apparent Km
T2 construct: native full-length protein in cryo-milled lysate of Δlag1Δsur2 yeast; with Ceramide synthase subunit LIP1
T2 sequence (P28496 2-418): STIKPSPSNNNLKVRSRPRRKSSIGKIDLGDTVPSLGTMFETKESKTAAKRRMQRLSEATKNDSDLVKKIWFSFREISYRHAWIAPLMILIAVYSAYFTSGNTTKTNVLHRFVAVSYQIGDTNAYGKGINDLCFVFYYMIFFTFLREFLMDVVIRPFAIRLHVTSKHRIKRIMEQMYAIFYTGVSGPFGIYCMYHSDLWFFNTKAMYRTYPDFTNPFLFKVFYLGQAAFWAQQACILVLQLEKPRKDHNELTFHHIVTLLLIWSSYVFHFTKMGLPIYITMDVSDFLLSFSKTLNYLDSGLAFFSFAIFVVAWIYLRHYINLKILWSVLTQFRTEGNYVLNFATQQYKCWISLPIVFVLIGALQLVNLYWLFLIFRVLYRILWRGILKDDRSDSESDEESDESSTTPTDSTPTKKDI
T2 sequence (Q03579 1-150 partner): T1 sequence (Q03579 1-150 partner)
Text: in vitro CerS assay, TLC fluorescence of NBD-ceramide on Lac1 | Lag1 (Δlac1Δsur2) has a higher affinity towards PHS than Lac1 (Δlag1Δsur2) | We next determined the Km of Lag1 or Lac1 towards DHS and PHS

| Substance | Km (Lag1) | Km (Lac1) |
| --- | --- | --- |
| NBD–DHS | 132 ± 29 µM | 165 ± 56 µM |
| NBD–PHS | 30.5 ± 6.6 µM | 128 ± 52.5 µM |

Source: publication PMC6602303, “Yeast ceramide synthases, Lag1 and Lac1, have distinct substrate specificity” (Journal of Cell Science, 2019)
